Where two headings read alike, the source gives them in different places.
Tests used:
Format in all cases: cell-based
hOAT3 [1] = molecular target: T1, hOAT3 (Homo sapiens, UniProt Q8TCC7); test: Uptake of radiolabeled compounds by Xenopus oocyte injected with hOAT3 cRNA
T1 construct: cRNA (RNA complementary to cDNA) was prepared in vitro from the plasmid comprising the hOAT3 recovered above; expressed in transfected cells; host or cells: Xenopus oocytes injected with hOAT3 cRNA
T1 sequence (Q8TCC7 1-542 K271E/D366H): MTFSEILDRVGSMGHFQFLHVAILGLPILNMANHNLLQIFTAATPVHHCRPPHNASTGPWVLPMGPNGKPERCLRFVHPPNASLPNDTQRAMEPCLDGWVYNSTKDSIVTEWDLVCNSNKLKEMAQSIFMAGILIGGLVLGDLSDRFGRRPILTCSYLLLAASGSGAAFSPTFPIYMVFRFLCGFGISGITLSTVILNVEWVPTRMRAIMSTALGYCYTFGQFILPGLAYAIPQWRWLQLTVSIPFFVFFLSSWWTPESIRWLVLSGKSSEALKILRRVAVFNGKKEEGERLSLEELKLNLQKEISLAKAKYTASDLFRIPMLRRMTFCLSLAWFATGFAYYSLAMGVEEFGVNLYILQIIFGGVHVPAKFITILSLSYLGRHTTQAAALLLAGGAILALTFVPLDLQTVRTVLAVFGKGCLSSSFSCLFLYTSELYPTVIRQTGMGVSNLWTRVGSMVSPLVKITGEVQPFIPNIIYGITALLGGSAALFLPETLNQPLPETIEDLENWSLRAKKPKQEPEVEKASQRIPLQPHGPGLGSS
Description: By using T7 RNA polymerase, cRNA (RNA complementary to cDNA) was prepared in vitro from the plasmid comprising the hOAT3 recovered above by the method by Sekine, et al. (see Sekine, T., et al. J. Biol. Chem., Vol. 272, pp. 18526-9, 1997).
According to the already reported method of Sekine, et al. (Sekine, T., et al. J. Biol. Chem., Vol. 272, pp. 18526-9, 1997), the resulting hOAT3 cRNA was injected in the Xenopus oocyte; the oocyte was subjected to an uptake test with various radiolabeled organic anions and organic cations. The control oocyte cell (oocyte cell with no injection of hOAT3 cRNA) and the oocyte cell injected with hOAT3 cRNA were cultured in a buffer containing the following radiolabels for one hour, to assay the uptake of the radiolabels into the oocytes.
In each figure, open column expresses the case of the control oocyte used; and closed column expresses the case of the oocyte injected with hOAT3 cRNA.

hOAT3 [2] = molecular target: T2, hOAT3 (Homo sapiens, UniProt Q8TCC7, D366H/K271E); test: Inhibition of 3H-estrone sulfate uptake in oocyte injected with hOAT3 cRNA; design: cRNA (RNA complementary to cDNA) was prepared in vitro from the plasmid comprising the hOAT3 recovered above; expressed in transfected cells; host or cells: Xenopus oocytes injected with hOAT3 cRNA; conditions: 50 nM 3H-estrone sulfate; non-radiolabeled compound at 500 μM or the concentration shown in FIG. 19; one hour
T2 sequence (Q8TCC7 1-542 K271E/D366H): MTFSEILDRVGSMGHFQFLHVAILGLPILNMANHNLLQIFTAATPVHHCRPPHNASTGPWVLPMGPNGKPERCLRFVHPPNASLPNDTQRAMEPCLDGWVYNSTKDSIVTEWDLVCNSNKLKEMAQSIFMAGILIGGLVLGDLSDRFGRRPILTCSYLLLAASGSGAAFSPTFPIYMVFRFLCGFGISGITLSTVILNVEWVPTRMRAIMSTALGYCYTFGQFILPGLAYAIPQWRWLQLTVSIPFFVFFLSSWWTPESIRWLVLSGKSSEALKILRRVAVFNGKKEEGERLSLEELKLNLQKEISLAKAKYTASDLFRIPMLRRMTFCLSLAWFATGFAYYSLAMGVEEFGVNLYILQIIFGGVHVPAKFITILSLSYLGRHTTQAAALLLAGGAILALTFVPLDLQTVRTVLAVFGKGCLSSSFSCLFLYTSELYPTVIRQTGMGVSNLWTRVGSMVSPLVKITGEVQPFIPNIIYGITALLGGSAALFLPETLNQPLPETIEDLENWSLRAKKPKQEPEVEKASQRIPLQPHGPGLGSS

rat OAT3 (rk1411) [3] = molecular target: T3, rat OAT3 (rk1411) (Rattus norvegicus, UniProt Q9R1U7); test: Inhibition of 3H-estrone sulfate uptake in oocyte injected with rk1411 cRNA
T3 construct: cRNA (RNA complementary to cDNA) was prepared in vitro from the plasmid carrying the clone (rk1411); expressed in transfected cells; host or cells: Xenopus oocytes injected with rk1411 cRNA
T3 sequence (Q9R1U7 1-536): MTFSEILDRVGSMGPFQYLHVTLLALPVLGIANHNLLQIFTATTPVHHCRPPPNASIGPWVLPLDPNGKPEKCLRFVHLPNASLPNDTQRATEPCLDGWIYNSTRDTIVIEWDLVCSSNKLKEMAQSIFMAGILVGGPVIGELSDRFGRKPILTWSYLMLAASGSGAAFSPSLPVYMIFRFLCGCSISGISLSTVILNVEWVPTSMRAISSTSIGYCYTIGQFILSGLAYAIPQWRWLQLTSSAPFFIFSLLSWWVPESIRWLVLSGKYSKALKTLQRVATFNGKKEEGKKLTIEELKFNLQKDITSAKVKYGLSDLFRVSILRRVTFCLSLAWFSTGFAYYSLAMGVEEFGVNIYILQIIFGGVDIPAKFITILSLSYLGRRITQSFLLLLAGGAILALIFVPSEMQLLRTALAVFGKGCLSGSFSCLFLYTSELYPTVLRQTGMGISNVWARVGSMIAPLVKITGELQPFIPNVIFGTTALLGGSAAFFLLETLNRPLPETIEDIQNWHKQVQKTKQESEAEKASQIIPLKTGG

rat OAT3 (rk1411) [4] = molecular target: T3, rat OAT3 (rk1411); test: Uptake of radiolabeled organic anions and cations by Xenopus oocyte expressing rk1411 (rat OAT3); conditions: Xenopus oocyte injected with rk1411 cRNA; FIG. 1
rat OAT3 (rk1411) [5] = molecular target: T3, rat OAT3 (rk1411); test: Michaelis-Menten dynamic test of organic anion transport with rk1411 in oocyte
Source text: The organic anion transport with rk1411 was subjected to the Michaelis-Menten dynamic test.

[6] = substrate: Nc1ccc(C(=O)NCC(=O)O)cc1; test: as above; conditions: other: transport by rk1411 (rat OAT3) in Xenopus oocyte; FIG. 2
[7] = substrate 10 μM, one hour, versus control oocyte
[8] = 1 mM unlabeled compound, Xenopus oocyte, FIG. 3
[9] = substrate 50 nM, one hour, versus control oocyte
[10] = substrate 100 nM, one hour, versus control oocyte
[11] = transport by rk1411 (rat OAT3) in Xenopus oocyte

## O=C(O)c1ccccc1O [salicylic acid]
hOAT3 [1]; substrate 1 μM, one hour, versus control oocyte
  uptake of radiolabeled compound by oocyte with hOAT3 expression: takes up

## COc1ccc2c(c1)c(CC(=O)O)c(C)n2C(=O)c1ccc(Cl)cc1 [indomethacin]
hOAT3 [1]; [7]
  uptake of radiolabeled compound by oocyte with hOAT3 expression: takes up
hOAT3 [2]
  inhibition of the transport of 3H-estrone sulfate with hOAT3: significantly inhibited

## COc1ccc(CCN(C)CCCC(C#N)(c2ccc(OC)c(OC)c2)C(C)C)cc1OC (stereo not shown) [berapamil]
Rat OAT3 (rk1411) [3]; [8]
  inhibition of 3H-estrone sulfate transport with rk1411: never exerted any such inhibitory action

## dehydroepiandrosterone sulfate
hOAT3 [1]; [9]
  uptake of radiolabeled compound by oocyte with hOAT3 expression: takes up

## CCCN(CCC)S(=O)(=O)c1ccc(C(=O)O)cc1 [probenecid]
Rat OAT3 (rk1411) [3]; [8]
  inhibition of 3H-estrone sulfate transport with rk1411: significantly inhibited
hOAT3 [2]
  inhibition of the transport of 3H-estrone sulfate with hOAT3: significantly inhibited

## CC1(C)S[C@@H]2[C@H](NC(=O)Cc3ccccc3)C(=O)N2[C@H]1C(=O)O [benzylpenicillin]
Rat OAT3 (rk1411) [3]; [8]
  inhibition of 3H-estrone sulfate transport with rk1411: significantly inhibited
hOAT3 [2]
  inhibition of the transport of 3H-estrone sulfate with hOAT3: significantly inhibited

## O=C(O)CCCC(=O)O [glutaric acid]
hOAT3 [1]; [7]
  uptake of radiolabeled compound by oocyte with hOAT3 expression: takes up
hOAT3 [2]
  inhibition of the transport of 3H-estrone sulfate with hOAT3: significantly inhibited

## C[C@]12CC[C@@H]3c4ccc(O)cc4CC[C@H]3[C@@H]1CC[C@@H]2O[C@@H]1O[C@H](C(=O)O)[C@@H](O)[C@H](O)[C@H]1O [estradiol glucuronide]
hOAT3 [1]; [9]
  uptake of radiolabeled compound by oocyte with hOAT3 expression: takes up

## CN(Cc1cnc2nc(N)nc(N)c2n1)c1ccc(C(=O)N[C@@H](CCC(=O)O)C(=O)O)cc1 [methotrexate]
hOAT3 [1]; [10]
  uptake of radiolabeled compound by oocyte with hOAT3 expression: takes up
hOAT3 [2]
  inhibition of the transport of 3H-estrone sulfate with hOAT3: significantly inhibited

## N=C(N)N [guanidine]
Rat OAT3 (rk1411) [3]; [8]
  inhibition of 3H-estrone sulfate transport with rk1411: never exerted any such inhibitory action

## Nc1ccc(C(=O)NCC(=O)O)cc1 [PAH, p-aminohippuric acid]
Rat OAT3 (rk1411) [4]
  uptake of radiolabeled compound by oocyte in which rk1411 was expressed: could take up
Rat OAT3 (rk1411) [5]
  Km: 64.7 ± 10 µM
Rat OAT3 (rk1411) [5]; [11]
  Vmax: 23.3 ± 2.8 pmol/hr/oocyte
hOAT3 [1]; [7]
  uptake of radiolabeled compound by oocyte with hOAT3 expression: takes up
hOAT3 [2]
  inhibition of the transport of 3H-estrone sulfate with hOAT3: significantly inhibited

## CCCCC[C@H](O)/C=C/[C@H]1[C@H](O)CC(=O)[C@@H]1C/C=C\CCCC(=O)O [prostaglandin E2]
hOAT3 [1]; substrate 1 nM, one hour, versus control oocyte
  uptake of radiolabeled compound by oocyte with hOAT3 expression: takes up

## CC[N+](CC)(CC)CC [TEA, tetraethylammonium]
hOAT3 [1]
  uptake of radiolabeled compound by oocyte with hOAT3 expression: never transported
hOAT3 [2]
  inhibition of the transport of 3H-estrone sulfate with hOAT3: never exerted any inhibitory action

## CC1(C)C(/C=C/C=C/C=C/C=C2\N(CCCCS(=O)(=O)O)c3ccc4ccccc4c3C2(C)C)=[N+](CCCCS(=O)(=O)[O-])c2ccc3ccccc3c21 [indocyanine green]
Rat OAT3 (rk1411) [3]; [8]
  inhibition of 3H-estrone sulfate transport with rk1411: significantly inhibited

## C[C@H](CCC(=O)NCCS(=O)(=O)O)[C@H]1CC[C@H]2[C@@H]3[C@H](O)C[C@@H]4C[C@H](O)CC[C@]4(C)[C@H]3C[C@H](O)[C@]12C [taurocholic acid]
Rat OAT3 (rk1411) [3]
  inhibition of 3H-estrone sulfate transport with rk1411: significantly inhibited
hOAT3 [1]; [7]
  uptake of radiolabeled compound by oocyte with hOAT3 expression: takes up
hOAT3 [2]
  inhibition of the transport of 3H-estrone sulfate with hOAT3: significantly inhibited

## C[C@@H]1Cc2c(Cl)cc(C(=O)N[C@@H](Cc3ccccc3)C(=O)O)c(O)c2C(=O)O1 [ochratoxin A]
Rat OAT3 (rk1411) [4]
  uptake of radiolabeled compound by oocyte in which rk1411 was expressed: could take up
Rat OAT3 (rk1411) [5]; [11]
  Vmax: 8.08 ± 0.33 pmol/hr/oocyte
Rat OAT3 (rk1411) [5]; transport by rk1411 (rat OAT3) in Xenopus oocyte, FIG. 2, listed as Ochratoxin A, read-out: Km
  Km: 0.739 ± 0.178 µM
Rat OAT3 (rk1411) [5]; transport by rk1411 (rat OAT3) in Xenopus oocyte, FIG. 2, read-out: Km
  Km: 0.74 µM
hOAT3 [1]; [10]
  uptake of radiolabeled compound by oocyte with hOAT3 expression: takes up

## CCCCNc1cc(C(=O)O)cc(S(N)(=O)=O)c1Oc1ccccc1 [bumetanide]
Rat OAT3 (rk1411) [3]; [8]
  inhibition of 3H-estrone sulfate transport with rk1411: significantly inhibited

## CN1C(C(=O)Nc2ccccn2)=C(O)c2ccccc2S1(=O)=O [pyroxicam]
Rat OAT3 (rk1411) [3]; [8]
  inhibition of 3H-estrone sulfate transport with rk1411: significantly inhibited

## O=C1OC(c2ccc(O)c(S(=O)(=O)O)c2)(c2ccc(O)c(S(=O)(=O)O)c2)c2c(Br)c(Br)c(Br)c(Br)c21 [bromosulfophthalein]
Rat OAT3 (rk1411) [3]; [8]
  inhibition of 3H-estrone sulfate transport with rk1411: significantly inhibited
hOAT3 [2]
  inhibition of the transport of 3H-estrone sulfate with hOAT3: significantly inhibited

## CN/C(=N/CCSCc1nc[nH]c1C)NC#N [cimetidine]
hOAT3 [1]; substrate 150 nM, one hour, versus control oocyte
  uptake of radiolabeled compound by oocyte with hOAT3 expression: takes up

## C[C@H](CCC(=O)O)[C@H]1CC[C@H]2[C@@H]3[C@H](O)C[C@@H]4C[C@H](O)CC[C@]4(C)[C@H]3C[C@H](O)[C@]12C [cholic acid]
Rat OAT3 (rk1411) [3]; [8]
  inhibition of 3H-estrone sulfate transport with rk1411: significantly inhibited
hOAT3 [1]; [7]
  uptake of radiolabeled compound by oocyte with hOAT3 expression: takes up

B1: rat OAT3 (rk1411) (Rattus norvegicus) (protein)
chain: MTFSEILDRVGSMGPFQYLHVTLLALPVLGIANHNLLQIFTATTPVHHCRPPPNASIGPWVLPLDPNGKPEKCLRFVHLPNASLPNDTQRATEPCLDGWIYNSTRDTIVIEWDLVCSSNKLKEMAQSIFMAGILVGGPVIGELSDRFGRKPILTWSYLMLAASGSGAAFSPSLPVYMIFRFLCGCSISGISLSTVILNVEWVPTSMRAISSTSIGYCYTIGQFILSGLAYAIPQWRWLQLTSSAPFFIFSLLSWWVPESIRWLVLSGKYSKALKTLQRVATFNGKKEEGKKLTIEELKFNLQKDITSAKVKYGLSDLFRVSILRRVTFCLSLAWFSTGFAYYSLAMGVEEFGVNIYILQIIFGGVDIPAKFITILSLSYLGRRITQSFLLLLAGGAILALIFVPSEMQLLRTALAVFGKGCLSGSFSCLFLYTSELYPTVLRQTGMGISNVWARVGSMIAPLVKITGELQPFIPNVIFGTTALLGGSAAFFLLETLNRPLPETIEDIQNWHKQVQKTKQESEAEKASQIIPLKTGG
notes: cRNA (RNA complementary to cDNA) was prepared in vitro from the plasmid carrying the clone (rk1411); expressed in transfected cells; host or cells: Xenopus oocytes injected with rk1411 cRNA
[6]
  Km: 4.7 µM

Reference: patent US8039586B1, “Cerebral organic anion transporter and its gene” (J-Pharma Co., Ltd., priority 1998, dated 2011)
